Assay results published in the NIST ThermoML archive (doi:10.1021/je060271a).

Conditions: 343.15 K, Liquid, Vibrating tube method

CCCCCCCC(=O)OCC(COC(=O)CCCCCCC)(COC(=O)CCCCCCC)COC(=O)CCCCCCC [pentaerythritol tetraoctanoate]
Conditions	mass density [kg/m3]
14038 kPa	936.2
14078 kPa	936.3
14099 kPa	936.2
14121 kPa	936.1
14146 kPa	936.2
14168 kPa	936.1
14194 kPa	936.3
14216 kPa	936.3
14238 kPa	936.2
14260 kPa	936.2
14286 kPa	936.3
14308 kPa	936.4
14330 kPa	936.4
14357 kPa	936.2
14379 kPa	936.4
14401 kPa	936.3
14428 kPa	936.3
14450 kPa	936.4
14473 kPa	936.4
14500 kPa	936.4
14523 kPa	936.4
14546 kPa	936.5
14570 kPa	936.6
14594 kPa	936.4
14621 kPa	936.6
14644 kPa	936.5
14667 kPa	936.4
14694 kPa	936.5
14718 kPa	936.6
14741 kPa	936.7
14765 kPa	936.5
14793 kPa	936.6
14817 kPa	936.6
14845 kPa	936.6
14870 kPa	936.7
14894 kPa	936.6
14918 kPa	936.8
14947 kPa	936.7
14971 kPa	936.8
14995 kPa	936.7
15024 kPa	936.7
15049 kPa	936.8
15078 kPa	936.8
15103 kPa	936.8
15127 kPa	936.8
15152 kPa	936.9
15183 kPa	936.8
15208 kPa	936.8
15233 kPa	936.8
15263 kPa	936.9
15288 kPa	937
15314 kPa	937
15344 kPa	937
15370 kPa	937
15396 kPa	937.1
15426 kPa	937.1
15452 kPa	937
15478 kPa	937
15508 kPa	937
15536 kPa	937
15563 kPa	937.1
15589 kPa	937.3
15616 kPa	937.2
15647 kPa	937.1
15673 kPa	937.2
15705 kPa	937.3
15732 kPa	937.3
15759 kPa	937.3
15791 kPa	937.2
15818 kPa	937.3
15846 kPa	937.3
15879 kPa	937.4
15908 kPa	937.4
15936 kPa	937.2
15964 kPa	937.3
15992 kPa	937.3
16026 kPa	937.4
16054 kPa	937.5
16083 kPa	937.4
16116 kPa	937.5
16144 kPa	937.5
16173 kPa	937.5
16207 kPa	937.5
16236 kPa	937.5
16265 kPa	937.7
16300 kPa	937.7
16329 kPa	937.6
16358 kPa	937.7
16387 kPa	937.6
16423 kPa	937.7
16453 kPa	937.7
16483 kPa	937.8
16518 kPa	937.7
16548 kPa	937.6
16578 kPa	937.8
16609 kPa	937.7
16645 kPa	937.8
16676 kPa	937.9
16707 kPa	937.9
16738 kPa	937.8
16775 kPa	937.8
16806 kPa	937.9
16843 kPa	938.1
16904 kPa	938
16942 kPa	938
16974 kPa	938.1
17005 kPa	938
17037 kPa	938.1
17075 kPa	938.1
17107 kPa	938.1
17146 kPa	938.2
17354 kPa	938.2
17387 kPa	938.2
17421 kPa	938.3
17460 kPa	938.4
17494 kPa	938.4
17528 kPa	938.4
17569 kPa	938.5
17604 kPa	938.5
17638 kPa	938.4
17678 kPa	938.5
17713 kPa	938.4
17748 kPa	938.5
17790 kPa	938.6
17825 kPa	938.6
17861 kPa	938.6
17904 kPa	938.7
17940 kPa	938.7
17977 kPa	938.8
18022 kPa	938.8
18054 kPa	938.8
18084 kPa	938.8
18119 kPa	938.8
18149 kPa	938.8
18179 kPa	938.8
18210 kPa	938.9
18247 kPa	938.9
18279 kPa	938.9
18312 kPa	938.9
18349 kPa	939
18372 kPa	938.9
18393 kPa	939.1
18411 kPa	939.1
18430 kPa	939
18448 kPa	939
18465 kPa	939.1
18482 kPa	939.1
18503 kPa	939.2
